Results taken from patent publication US20220220481A1, “LIPID OLIGONUCLEOTIDE ANTISENSE AGAINST ANTIBIOTIC RESISTANCE” (priority 2019, published 2022).

Experiments:
[1] = tested on: E. coli K12 (CFX sensitive strain); assay: Ceftriaxone MIC with or without ASOs/LASOs, liquid micro-dilution, sensitive strain; type: cell-based, Escherichia coli; details: K12, 24 h, SD 0, n=3
Protocol: (§1) Determination of minimum inhibitor concentration (MICs) of free CFX with or without ASOs/LASOs was performed on different strains of E. coli, i.e. the CFX sensitive strain K12, and the two resistant strains TcK12 and Ec3536.
(§2) MICs of free CFX with ASOs/LASOs were determined in accordance with the standard method of liquid micro-dilution.
Each bacterial strain that had been frozen at −80° C. was isolated on Mueller-Hinton (MH) agar during 16 h at 37° C. A bacterial suspension in solution of 0.85% NaCl was prepared in order to obtain a turbidity equivalent to standard 0.5 of McFarland range and then diluted 1/100 in MH that correspond to a bacterial inoculum of ca. 10^6 CFU/mL. The bacterial suspension was afterwards mixed with ASOs, LASOs at 2-fold desired concentration in MH. Then 50 μL of bacterial suspension mixed with 50 μl MH, containing oligonucleotides or CFX, was dispensed into the microplate wells immediately. The final volume per well was 100 μL. The concentration of oligonucleotides in well was fixed at 5 μM except for dose-effect tests. The concentration range of LASOs from 0.05 μM to 50 μM was tested. The range of CFX concentration was adjusted to surround the MIC of each bacterial strain. […]
(§3) Preliminary data allowed to optimize the analysis of microplates using turbidimeter (Apollo LB 911 (Berthold)) at the wavelength of 620 nm, read in triplicate at 0 h, and 24 h. […]

[2] = tested on: E. coli TcK12 (resistant, blaCTX-M-15 plasmid); assay: Ceftriaxone MIC with or without ASOs/LASOs, liquid micro-dilution, resistant laboratory strain; type: cell-based, Escherichia coli; details: TcK12, 24 h
Excerpt: E. coli strains used included the clinical strain Ec3536 collected from a urine sample of the community patient and provided from the MFP Laboratory collection (Arpin et al. (2009) J. Antimicrob. Chemother. 63:1205-1214). Its conjugative plasmid containing the blaCTX-M-15 gene was transferred by conjugation experiment in a laboratory recipient cell of E. coli K12. Consequently, the transconjugant E. coli TcK12 was resistant to ceftriaxone (CFX) (Arpin et al. (2009) J. Antimicrob. Chemother. 63:1205-1214).
as §1, §2
Each bacterial strain that had been frozen at −80° C. was isolated on Mueller-Hinton (MH) agar during 16 h at 37° C. A bacterial suspension in solution of 0.85% NaCl was prepared in order to obtain a turbidity equivalent to standard 0.5 of McFarland range and then diluted 1/100 in MH that correspond to a bacterial inoculum of ca. 10^6 CFU/mL. […]
as §3

With CO/N=C(\C(=O)N[C@@H]1C(=O)N2C(C(=O)O)=C(CSc3nc(=O)c(=O)[nH]n3C)CS[C@H]12)c1csc(N)n1 [CFX, ceftriaxone] the “CFX MIC in absence of antisense sequences” value [1] was 0.06 µg/mL and the “CFX MIC without oligonucleotide (means of MICs)” value [2] was 1365 µg/mL.
